Reference: BindingDB's records for doi:10.1021/np500581m (Institute of Microbial Chemistry (Bikaken), 2015)

Assay: Induction of p53-dependent growth suppression of human LNZTA3 cells after 72 hrs by MTT assay

SMILES | IC50 [µM]
CCCCC[C@H](O[C@@H]1O[C@@H]([C@H](O)CO)[C@H](O)[C@H]1O)c1c(O)cc2c(c1O)C(=O)c1c(O)cc(O)cc1C2=O | 6.2
CCCCC[C@H](O[C@@H]1O[C@@H]([C@H](O)CO)[C@H](O)[C@H]1OC(C)=O)c1c(O)cc2c(c1O)C(=O)c1c(O)cc(O)cc1C2=O | 6.2
